The results in this text go back to patent US12247029B2, “Heterocyclic compounds as class II phosphoinositide 3-kinase inhibitors” (Forschungsverbund Berlin e.V., priority 2018, dated 2025).

This experiment addresses PI3KC2α Δ1-298 (Homo sapiens (Human), UniProt O00443). Briefly: ADP-Glo kinase assay with purified PI3KC2α Δ1-298. It is filed as biochemical. The conditions noted are these: for IC50: read-out: IC50 (PI3KC2α; ADP-Glo™ assay). The protocol: Previous studies have shown that PI3KC2α can utilize phosphatidylinositol (PI) or phosphatidylinositol 4-phosphate [PI(4)P] to produce PI(3)P or PI(3,4)P2 respectively but with a preference for PI(3,4)P2 production. To verify that purified PI3KC2α Δ1-298 is active, a radioactive kinase assay was performed with PI as a substrate and different amounts of purified PI3KC2α Δ1-298. The lipid product [PI(3)P] was separated on TLC plates, and the PI(3)P signal was correlated with the amount of PI3KC2α used (FIG. 4A). […] After having confirmed the activity of purified PI3KC2α Δ1-298, an assay suitable for high content screens in multiwell format (ADP-Glo™ assay) was established. The ADP-Glo™ assay has been used for universal detection of ATP hydrolysis. This assay measures ATP hydrolysis occurring during a kinase reaction. For detection, generated ADP is re-converted into ATP with the […] and converted into light by the Ultra-Glo™ Luciferase reagent. The luminescent signal reports kinase activity (FIG. 4B).
The ADP-Glo™ assay was first used to determine the linear correlation range of signal with different amounts of kinase, and then to assess the Kms for ATP and for PI. […] Further optimization of this assay allowed us to carry out medium-to-high throughput screening using low amounts of purified enzyme (at fixed concentrations of: ATP=40 μM, PI=200 μM, PI3KC2α A1−298=10 ng/μl).
Primary screens were performed using the ADP-Glo™ assay in a 384-well format. 37, 224 small molecules were screened for their ability to inhibit kinase activity of PI3KC2α Δ1-298. The concentration of each compound used in the primary screens was 10 μM. Kinase incubations with ATP but without PI were used as negative control samples. This primary screen turned out to be robust with an average z′ factor of 0.57, and therefore judged as successful.
ADP-Glo kinase assay was performed as described by the manufacturer's protocol. Briefly, the kinase assay was performed with a […] of liver PI/ATP/purified PI3KC2α for 20 min in kinase reaction buffer described above. To deplete the remaining ATP from the reaction, 5 μl of […] was added to the kinase reaction mixture and incubated for 40 min. For detection, the generated ADP is re-converted into ATP and converted into light by the Ultra-Glo™ luciferase in kinase detection reagent. The luminescent signal positively correlates with kinase activity. All reactions are performed in Corning® 384 well-white plates.

Chain of PI3KC2α Δ1-298 (O00443 299-1686): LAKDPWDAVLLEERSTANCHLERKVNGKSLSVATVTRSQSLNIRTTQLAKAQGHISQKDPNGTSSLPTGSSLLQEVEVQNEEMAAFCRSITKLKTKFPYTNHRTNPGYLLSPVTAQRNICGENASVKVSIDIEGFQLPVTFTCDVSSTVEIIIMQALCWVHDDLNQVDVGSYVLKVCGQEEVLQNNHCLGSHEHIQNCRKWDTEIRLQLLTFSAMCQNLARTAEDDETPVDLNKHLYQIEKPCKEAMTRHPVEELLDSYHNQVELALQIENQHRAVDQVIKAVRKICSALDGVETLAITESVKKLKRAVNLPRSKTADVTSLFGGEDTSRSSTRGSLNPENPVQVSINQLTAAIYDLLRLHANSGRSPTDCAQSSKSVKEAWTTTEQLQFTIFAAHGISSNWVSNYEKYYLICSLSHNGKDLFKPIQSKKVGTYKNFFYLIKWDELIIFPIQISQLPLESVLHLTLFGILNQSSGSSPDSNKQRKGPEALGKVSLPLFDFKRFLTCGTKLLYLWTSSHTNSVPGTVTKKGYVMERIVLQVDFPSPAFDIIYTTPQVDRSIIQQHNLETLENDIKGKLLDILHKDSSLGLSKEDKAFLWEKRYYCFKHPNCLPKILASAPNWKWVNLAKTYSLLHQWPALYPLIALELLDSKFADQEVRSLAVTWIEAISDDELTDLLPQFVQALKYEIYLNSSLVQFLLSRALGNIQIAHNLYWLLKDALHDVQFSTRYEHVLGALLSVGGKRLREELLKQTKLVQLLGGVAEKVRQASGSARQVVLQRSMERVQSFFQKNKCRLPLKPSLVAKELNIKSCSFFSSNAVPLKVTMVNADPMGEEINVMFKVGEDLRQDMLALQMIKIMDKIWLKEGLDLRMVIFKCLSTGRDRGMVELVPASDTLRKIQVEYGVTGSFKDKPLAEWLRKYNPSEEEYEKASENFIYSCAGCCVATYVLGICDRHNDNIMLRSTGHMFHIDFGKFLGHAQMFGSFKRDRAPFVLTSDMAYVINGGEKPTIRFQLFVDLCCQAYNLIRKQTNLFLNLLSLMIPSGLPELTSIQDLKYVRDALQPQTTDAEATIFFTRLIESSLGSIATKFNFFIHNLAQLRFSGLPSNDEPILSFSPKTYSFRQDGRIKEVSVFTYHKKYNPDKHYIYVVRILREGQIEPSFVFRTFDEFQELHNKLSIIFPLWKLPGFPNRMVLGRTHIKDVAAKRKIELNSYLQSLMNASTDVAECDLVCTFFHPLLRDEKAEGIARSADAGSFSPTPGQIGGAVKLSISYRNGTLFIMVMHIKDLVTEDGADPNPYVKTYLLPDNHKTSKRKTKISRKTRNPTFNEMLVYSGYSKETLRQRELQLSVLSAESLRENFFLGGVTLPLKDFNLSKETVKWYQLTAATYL

For orientation: IC50 means the point on the concentration scale where inhibition reaches its midpoint. Turning to `O=C(CSc1nc2nccnc2c(=O)n1CCc1ccccc1)Nc1ncc(Br)s1` [Example Compound 29, N-(5-Bromothiazol-2-yl)-2-((4-oxo-3-phenethyl-3,4-dihydropteridin-2-yl)thio)acetamide], the “PI3KC2α inhibitory activity (in words, SAR)” value is recorded as “functional compounds” and the IC50 came out at 6.6 µM.
As to `Cc1ccc(-c2csc(NC(=O)CSc3nc4nccnc4c(=O)n3CCc3ccccc3)n2)s1` [Example Compound 30, N-(4-(5-Methylthiophen-2-yl)thiazol-2-yl)-2-((4-oxo-3-phenethyl-3,4-dihydropteridin-2-yl)thio)acetamide], the IC50 was determined as 5.8 µM.
In the case of `COc1cccc(-c2csc(NC(=O)CSc3nc4nccnc4c(=O)n3CCc3ccccc3)n2)c1` [Example Compound 31, N-(4-(3-Methoxyphenyl)thiazol-2-yl)-2-((4-oxo-3-phenethyl-3,4-dihydropteridin-2-yl)thio)acetamide], the IC50 came to 2.4 µM.
The same measure, in the same setting: the figure for `O=C(CSc1nc2nccnc2c(=O)n1Cc1ccco1)Nc1nccs1` [Example Compound 32, 2-((3-(Furan-2-ylmethyl)-4-oxo-3,4-dihydropteridin-2-yl)thio)-N-(thiazol-2-yl)acetamide] is 1.8 µM; for `O=C(CSc1nc2nccnc2c(=O)n1Cc1ccco1)Nc1ccccc1F` [Example Compound 33, N-(2-Fluorophenyl)-2-((3-(furan-2-ylmethyl)-4-oxo-3,4-dihydropteridin-2-yl)thio)acetamide] it is 7.9 µM.
On the same count and under the same terms, the figure for `O=C(CSc1nc2nccnc2c(=O)n1-c1ccccc1)Nc1nccs1` [Example Compound 40, 2-((4-Oxo-3-phenyl-3,4-dihydropteridin-2-yl)thio)-N-(thiazol-2-yl)acetamide] is 6.6 µM.
Same read-out and setting: the figure for `NC(=O)c1ccc(-n2c(SCC(=O)Nc3nccs3)nc3nccnc3c2=O)cc1` [Example Compound 41, 4-(4-Oxo-2-((2-oxo-2-(thiazol-2-ylamino)ethyl)thio)pteridin-3(4H)-yl)benzamide] is 0.051 µM; for `O=C(CSc1nc2nccnc2c(=O)n1Cc1ccccc1)Nc1nccs1` [Example Compound 42, 2-((3-Benzyl-4-oxo-3,4-dihydropteridin-2-yl)thio)-N-(thiazol-2-yl)acetamide] it is below 50 µM.
Turning to `O=C(CSc1nc2nccnc2c(=O)n1CCC1CCCCC1)Nc1nccs1` [Example Compound 44, 2-((3-(2-Cyclohexylethyl)-4-oxo-3,4-dihydropteridin-2-yl)thio)-N-(thiazol-2-yl)acetamide], the concentration for half-maximal inhibition (IC50) came to 0.59 µM.
On the same count and under the same terms, the figure for `O=C(CSc1nc2nccnc2c(=O)n1CCc1ccccc1)Nc1ncc(Cl)s1` [Example Compound 45, N-(5-Chlorothiazol-2-yl)-2-((4-oxo-3-phenethyl-3,4-dihydropteridin-2-yl)thio)acetamide] is 35 µM.
Still for that read-out and setting: with `Cc1cnc2nc(SCC(=O)Nc3nccs3)n(CCc3ccccc3)c(=O)c2n1` [Example Compound 46, 2-((6-Methyl-4-oxo-3-phenethyl-3,4-dihydropteridin-2-yl)thio)-N-(thiazol-2-yl)acetamide] the figure was 23 µM.
Still for that read-out and setting: with `O=C(CSc1nc2nccnc2c(=O)n1CCc1ccccc1)Nc1nc(-c2ccc3ccccc3c2)cs1` [Example Compound 48, N-(4-(Naphthalen-2-yl)thiazol-2-yl)-2-((4-oxo-3-phenethyl-3,4-dihydropteridin-2-yl)thio)acetamide] the figure was 26 µM; with `O=C(CSc1nc2nccnc2c(=O)n1CCc1ccccc1)Nc1nc(-c2ccc(Cl)cc2)cs1` [Example Compound 49, N-(4-(4-Chlorophenyl)thiazol-2-yl)-2-((4-oxo-3-phenethyl-3,4-dihydropteridin-2-yl)thio)acetamide], 7.1 µM; with `N#Cc1ccc(-c2csc(NC(=O)CSc3nc4nccnc4c(=O)n3CCc3ccccc3)n2)cc1` [Example Compound 50, N-(4-(4-Cyanophenyl)thiazol-2-yl)-2-((4-oxo-3-phenethyl-3,4-dihydropteridin-2-yl)thio)acetamide], 2.9 µM.
In the case of `CS(=O)(=O)c1ccc(-c2csc(NC(=O)CSc3nc4nccnc4c(=O)n3CCc3ccccc3)n2)cc1` [Example Compound 53, N-(4-(4-(Methylsulfonyl)phenyl)thiazol-2-yl)-2-((4-oxo-3-phenethyl-3,4-dihydropteridin-2-yl)thio)acetamide], the IC50 is 1.3 µM.
On the same count and under the same terms, the figure for `O=C(CSc1nc2ncccc2c(=O)n1CCc1ccccc1)Nc1nccs1` [Example Compound 54, 2-((4-Oxo-3-phenethyl-3,4-dihydropyrido[2,3-d]pyrimidin-2-yl)thio)-N-(thiazol-2-yl)acetamide] is 0.82 µM; for `CS(=O)(=O)N(c1cccc(-c2csc(NC(=O)CSc3nc4nccnc4c(=O)n3CCc3ccccc3)n2)c1)S(C)(=O)=O` [Example Compound 55, N-(4-(3-(N-(Methylsulfonyl)methylsulfonamido)phenyl)thiazol-2-yl)-2-((4-oxo-3-phenethyl-3,4-dihydropteridin-2-yl)thio)acetamide] it is 0.2 µM.
Still for that read-out and setting: with `COc1cccc2nc(NC(=O)CSc3nc4nccnc4c(=O)n3CCc3ccccc3)sc12` [Example Compound 56, N-(7-Methoxybenzo[d]thiazol-2-yl)-2-((4-oxo-3-phenethyl-3,4-dihydropteridin-2-yl)thio)acetamide] the figure was 3.1 µM; with `O=C(CSc1nc2nccnc2c(=O)n1CCc1ccccc1)Nc1nc2c(F)cc(F)cc2s1` [Example Compound 57, N-(4,6-Difluorobenzo[d]thiazol-2-yl)-2-((4-oxo-3-phenethyl-3,4-dihydropteridin-2-yl)thio)acetamide], 3.4 µM.
By inhibition is commonly meant the share of the control response that was lost under treatment. In the case of `O=C(CSc1nc2nccnc2c(=O)n1CCc1ccccc1)Nc1nc(-c2cccc([N+](=O)[O-])c2)cs1` [Example Compound 58, N-(4-(3-Nitrophenyl)thiazol-2-yl)-2-((4-oxo-3-phenethyl-3,4-dihydropteridin-2-yl)thio)acetamide], the inhibition at 10 µM was found to be 100%.
`Nc1cccc(-c2csc(NC(=O)CSc3nc4nccnc4c(=O)n3CCc3ccccc3)n2)c1` [Example Compound 59, N-(4-(3-Aminophenyl)thiazol-2-yl)-2-((4-oxo-3-phenethyl-3,4-dihydropteridin-2-yl)thio)acetamide]: the IC50 is 0.15 µM.
Same read-out and setting: with `O=C(CSc1nc2nccnc2c(=O)n1CCc1ccccc1)NC1CCC1` [Example Compound 60, N-Cyclobutyl-2-((4-oxo-3-phenethyl-3,4-dihydropteridin-2-yl)thio)acetamide] the figure was 5.9 µM.
Take `CC(C)NC(=O)CSc1nc2nccnc2c(=O)n1CCc1ccccc1` [Example Compound 61, N-Isopropyl-2-((4-oxo-3-phenethyl-3,4-dihydropteridin-2-yl)thio)acetamide]: the inhibition at 10 µM was determined as 30%.
Take `O=c1c2nccnc2nc(SCc2nc3ccccc3s2)n1CCc1ccccc1` [Example Compound 62, 2-((Benzo[d]thiazol-2-ylmethyl)thio)-3-phenethylpteridin-4(3H)-one]: the IC50 was found to be 4 µM.
Take `O=c1c2nccnc2nc(SCc2nc3ccccc3o2)n1CCc1ccccc1` [Example Compound 63, 2-((Benzo[d]oxazol-2-ylmethyl)thio)-3-phenethylpteridin-4(3H)-one]: the IC50 amounted to 5.7 µM.
